Where “and” joins values, the source holds several entries; their conditions need not be identical. Identical values can stand only once.
Key:
Type in all cases: in vivo, mouse
pMSK-1 = experiment: Striatal pMSK-1 immunohistochemistry 1 h after single injection; conditions: single injection 20 mg/kg i.p., individual mice
Protocol: (§1) Immunohistochemistry was performed as described in Papale et al ([2016]). Briefly, 1 h after blocking in 5% normal goat serum and 0.1% Triton X‐100 solution, free‐floating sections were incubated overnight at 4°C with one of the following primary antibodies: anti‐phospho‐p44/42 MAP kinase (Thr202/Tyr204) (1:200, Cell Signaling Technology #9101), anti‐phospho–Elk‐1 (Ser383) (1:100, Cell Signaling #9181), anti‐phospho‐Kv4.2 (Thr607)‐R (1:100, Santa Cruz sc22254‐R), anti‐phospho‐MSK‐1 (1:100 Cell Signaling Technology #9595), anti‐phospho‐MEK1/2 (Ser218/222) (1:100, sc‐7995 Santa Cruz Biotechnology), c‐Fos (1:100, sc‐52 Santa Cruz Biotechnology), tyrosine Hydroxylase (monoclonal 1:1,000, Sigma Aldrich, Italy) and anti‐DARPP‐32 (H3) (1:100, Santa Cruz Biotechnology, #sc‐271111) overnight at 4°C. […]
(§2) For in vivo immunohistochemistry experiments, images were acquired from the dorsal striatum using a Leica DM IRB microscope under a 20× objective. The number of p‐ERK, p‐MSK‐1, p‐ELK, p‐MEK‐1, p‐VG K+, c‐Fos, and DARPP‐32 positive cells was counted in 2–3 consecutive sections per mouse, bilaterally and averaged across the sections using the ImageJ software by a blind investigator to the condition. Estimation of nigral cell loss was assessed by quantifying the number of TH‐immunopositive neurons of the SNc in 360 μm‐spaced sections for each animal.

c-Fos = experiment: Striatal c-Fos immunohistochemistry 1 h after single injection; conditions: single injection 20 mg/kg i.p., individual mice
Protocol: as §1, §2

[1] = system: voltage-gated K+ (Kv4.2) channel phosphorylation; experiment: Striatal phospho-Kv4.2 immunohistochemistry 1 h after single injection; conditions: single injection 20 mg/kg i.p., individual mice
Protocol: as §1, §2

[2] = system: 3-NP-induced striatal apoptosis; experiment: TUNEL assay in striatum, 3-NP model with RB5; conditions: 7 days, individual mice
Protocol: The detection of apoptosis on cultured cells or tissue sections was carried out using the DeadEnd™ Colorimetric TUNEL System kit (Promega). Cultured cells were fixed in 4% PFA for 15 min at room temperature before undergoing TUNEL staining. Tissue sections were obtained from mice perfused with 4% PFA. Brains were subsequently stored in 30% sucrose overnight and cut into 35 μm‐thick slices using a freezing microtome. Slices were mounted on slides and processed for TUNEL staining. TUNEL was performed following the manufacturer's instructions. Briefly, slides were immersed in PBS for 5 min RT and then incubated for 25 min in a […] Proteinase K solution. Then, the slides were rinsed in 1× PBS, re‐fixed in 4% PFA for 5 min, and rinsed twice with 1× PBS. […] of equilibration buffer were added to each tissue section for 5–10 min followed by 1 h of incubation at 37°C in a humidified chamber with […] of rTdT reaction mix. After that, slides were immersed in 2× SSC solution in a Coplin jar for 15 min and washed twice in PBS 1× for 5 min. The endogenous peroxidase activity was blocked with 0.3% hydrogen peroxide for 5 min. The slides were rinsed twice in 1× PBS for 5 min and incubated for 30 min with Streptavidin HRP solution and finally DAB substrate was added to react for 10 min. A light microscope was used to acquire four representative fields per slide from cultured cells and 3–4 representative slices per mouse from all experimental groups. The number of TUNEL positive cells was counted using ImageJ software.
3‐NP (3‐Nitropropionic acid) (N5636, Sigma) was dissolved in distilled water to a concentration of 50 mg/ml (pH 7.4) and passed through a 0.2‐μm filter and kept at −80°C until use. The 3‐NP solution was administered i.p. once daily at a dose of 50 mg/kg either for 21 consecutive days in the LV‐injected mice or for 7 days in combination with RB5.

[3] = system: procedural learning (nose poke responses); experiment: 9-hole operant boxes, FR1 nose poke, zQ175 mice with RB5; conditions: for Nose poke responses (FR1): 9 days of treatment, 20 mg/kg i.p.; for FR1 nose poke, AUC analysis: 20 mg/kg i.p. 1 h before session
Protocol: Operant testing was conducted in 16 9‐hole operant boxes as previously described (Yhnell et al, [2016a]). Each operant box contains a horizontal array of nine holes with infrared beams localized to the front of each hole to detect nose pokes. A peristaltic pump delivers liquid reinforcement (strawberry milk) into a magazine at the front of the box.
A week before starting the training, mice underwent water restriction for 18 h/day and were kept under this regimen throughout the experimental procedures. Mice were taught to nose poke on a simple fixed ratio (FR1) schedule of reinforcement: to obtain reward, mice were required to respond to a stimulus light in the central hole via a single nose poke. zQ175 mice were trained daily on this program for 20‐min sessions for 10 days (training phase). Once trained, animals were subdivided into four groups and injected with RB5 or scramble (20 mg/kg, i.p.) peptides 1 h before being tested on the FR1 schedule for the other 9 days. At the end of the behavioral tests, mice were perfused with 4% PFA, and brains were processed for IHC or IF.

[4] = peptide 20 mg/kg i.p. twice a day plus 3-NP 50 mg/kg i.p. once a day
[5] = peptide 20 mg/kg i.p. twice a day plus saline

Substance | pMSK-1 positive cells in striatum (pMSK-1) | c-Fos positive cells in striatum (c-Fos) | phospho-Kv4.2 positive cells in striatum [1] | TUNEL positive cells in striatum [2, 4] | TUNEL positive cells in striatum [2, 5] | FR1 nose poke, AUC analysis ([3]; WT females, treatment day 1) | FR1 nose poke, AUC analysis ([3]; WT females, treatment day 2) | FR1 nose poke, AUC analysis ([3]; WT females, treatment day 3) | FR1 nose poke, AUC analysis ([3]; WT females, treatment day 4) | FR1 nose poke, AUC analysis ([3]; WT females, treatment day 5) | FR1 nose poke, AUC analysis ([3]; WT females, treatment day 6) | FR1 nose poke, AUC analysis ([3]; WT females, treatment day 7) | FR1 nose poke, AUC analysis ([3]; WT females, treatment day 8) | FR1 nose poke, AUC analysis ([3]; WT females, treatment day 9) | FR1 nose poke, AUC analysis ([3]; zQ175 females, treatment day 1) | FR1 nose poke, AUC analysis ([3]; zQ175 females, treatment day 2) | FR1 nose poke, AUC analysis ([3]; zQ175 females, treatment day 3) | FR1 nose poke, AUC analysis ([3]; zQ175 females, treatment day 4) | FR1 nose poke, AUC analysis ([3]; zQ175 females, treatment day 5) | FR1 nose poke, AUC analysis ([3]; zQ175 females, treatment day 6) | also measured
GRKKRRQRRRPPQGGGGGEPRRTEGVGPGVPGEVEMVKGQPFDV [RB5, six D-amino acids, acetylated N-terminus] | selectively activated and 947.619 and 433.333 and 542.857 and 395.238 and 690.476 and 838.095 and 642.857 and 1019.05 and 728.571 and 490.476 and 328.571 and 904.762 and 1233.33 and 671.429 | selectively activated and 771.429 and 809.524 and 757.143 and 976.19 and 723.81 and 795.238 and 914.286 and 857.143 and 814.286 and 852.381 and 738.095 and 761.905 and 961.905 and 728.571 | did not influence the phosphorylation and 523.81 and 680.952 and 528.571 and 533.333 and 561.905 and 538.095 and 490.476 and 742.857 and 552.381 and 633.333 and 638.095 and 547.619 | significantly reduced neuronal death and 87.8049 and 8.8692 and 39.0244 and 107.72 and 134.65 and 179.533 and 163.212 and 136.585 and 117.073 | 29.2683 and 60.9756 and 89.7666 and 81.606 and 71.8133 and 143.627 and 134.65 and 43.3604 | 696.2 | 784.67 | 771.56 | 796.53 | 786.86 | 819.62 | 786.91 | 844.4 | 832.09 | 293.69 | 300.15 | 373.09 | 374.4 | 384.76 | 413.69 | Nose poke responses (FR1) ([3]; WT and zQ175 females): significantly enhanced responses; FR1 nose poke, AUC analysis ([3]; zQ175 females, treatment day 7): 454.91; FR1 nose poke, AUC analysis ([3]; zQ175 females, treatment day 8): 338.07; FR1 nose poke, AUC analysis ([3]; zQ175 females, treatment day 9): 338.07; Nose poke responses (FR1) ([3]; zQ175 males): did not alter responses
SCR: ineffective Scramble version of RB5 containing a TAT sequence (GRKKRRQRRRPPRVGPGVPEGVGVAVFGVKEPGQTGDVGPVGE) [reference compound] | 614.286 and 328.571 and 409.524 and 680.952 and 885.714 and 485.714 and 509.524 and 319.048 and 571.429 and 461.905 and 338.095 and 209.524 and 466.667 and 700 and 519.048 | 461.905 and 395.238 and 423.81 and 380.952 and 419.048 and 352.381 and 438.095 and 376.19 and 604.762 and 404.762 and 590.476 and 552.381 and 490.476 and 290.476 | 690.476 and 419.048 and 495.238 and 514.286 and 895.238 and 652.381 and 457.143 and 633.333 and 452.381 and 780.952 and 561.905 and 657.143 and 738.095 and 604.762 | 360.976 and 175.61 and 179.533 and 215.44 and 403.95 and 136.585 and 370.732 | 87.8049 and 58.5366 and 107.72 and 89.7666 and 104.728 and 165.854 | 426 | 494 | 529 | 551 | 606 | 632 | 637 | 652 | 625 | 79.44 | 88.63 | 81.25 | 82.51 | 86.56 | 92.15 | FR1 nose poke, AUC analysis ([3]; zQ175 females, treatment day 7): 90.83; FR1 nose poke, AUC analysis ([3]; zQ175 females, treatment day 8): 92.99; FR1 nose poke, AUC analysis ([3]; zQ175 females, treatment day 9): 83.24

Source: PMC10630888, “Nuclear ERK1/2 signaling potentiation enhances neuroprotection and cognition via Importinα1/KPNA2” (EMBO Molecular Medicine, 2023)
